Measured values from patent publication US20090044291A1, “DROUGHT-RESISTANT PLANTS AND METHOD FOR PRODUCING THE PLANTS” (D-Helix, priority 2006, published 2009).
“Also recorded” adds a separate entry of the source.

System: gl1 seedlings
Assay: Effects of ABA in vivo on chlorophyll, porphyrins and ABAR/CHLH protein
Design: species or system Arabidopsis thaliana
Settings: exogenous ABA treatment, 10 d
Method: The contents of chlorophyll, protoporphyrin IX and Mg-protoporphyrin IX were assayed essentially by the previously described procedures (Mochizuki, N. et al., Proc. Natl. Acad. Sci. USA 98:2053-2058 (2001)).
For the effects of ABA in vivo, the seeds of the ecotype gl1 were germinated after stratification on common MS medium and 48 h later transferred to MS medium supplemented with different concentrations of ABA. 10 d later, the contents of chlorophyll and porphyrins including of protoporphyrin IX and Mg-protoporphyrin IX were measured. At the same time total proteins were extracted from leaves for testing the amounts of ABAR/CHLH protein by immunoblotting.

Structure (SMILES): CC1=CC(=O)CC(C)(C)C1(O)/C=C/C(C)=C\C(=O)O (stereo not shown) [ABA, abscisic acid]
- MgProto contents: enhances
- Proto contents: significantly decreased; also recorded: decreases
- chlorophyll contents: significantly decreased; also recorded: decreases
- ABAR expression (protein levels) (immunoblotting): stimulated; also recorded: enhances
